Test results: US20130302442A1, “METHODS OF USING (4S,4AS,5AR,12AS)-4-DIMETHYLAMINO-3,10,12,12A-TETRAHYDROXY-7-[(METHOXY(METHYL)AMINO)-METHYL]-1,11-DIOXO-1,4,4A,5,5A,6,11,12A-OCTAHYDRO-NAPHTHACENE-2-CARBOXYLIC ACID AMIDE” (priority 2012, published 2013)
Values after ≈ are worked out from the molar mass of the structure shown. Read-outs that look alike come from different tables or passages of the source.

Columns and labels:
S. epidermidis = test: In vitro MIC testing, antibacterial spectrum of activity; type: cell-based, Staphylococcus epidermidis; conditions: Staphylococcus epidermidis; for MIC50: read-out: MIC50; for MIC90: read-out: MIC90
S. haemolyticus = test: as above; type: cell-based; conditions: Staphylococcus haemolyticus, S. haemolyticus (33 isolates); for MIC90: read-out: MIC90
P. avidum = test: as above; type: cell-based; conditions: P. avidum [clinical isolates] (4 isolates)
[1] = tested on: methicillin-sensitive S. aureus (MSSA); test: In vitro MIC against isolates of MSSA; type: cell-based, Staphylococcus aureus; conditions: Staphylococcus aureus, MSSA (34 isolates)
S. aureus = test: In vitro MIC testing, antibacterial spectrum of activity; type: cell-based, Staphylococcus aureus; conditions: Staphylococcus aureus
S. pneumoniae = test: as above; type: cell-based, Streptococcus pneumoniae; conditions: Streptococcus pneumoniae, S. pneumoniae [PSSP] (32 isolates)
S. pyogenes = test: as above; type: cell-based; conditions: Streptococcus pyogenes
[2] = tested on: Streptococcus spp. [Group C]; test: as above; type: cell-based; conditions: Streptococcus spp. [Group C] (30 isolates)
P. acnes = test: as above; type: cell-based, Propionibacterium acnes; conditions: Cutibacterium acnes
[3] = tested on: community-acquired methicillin-resistant S. aureus (MRSA-CA); test: In vitro MIC against isolates of MRSA-CA; type: cell-based, Staphylococcus aureus; conditions: Staphylococcus aureus; MRSA-CA (33 isolates)
E. faecium = test: In vitro MIC testing, antibacterial spectrum of activity; type: cell-based; conditions: Enterococcus faecium
E. faecalis = test: as above; type: cell-based; conditions: Enterococcus faecalis
S. agalactiae = test: as above; type: cell-based; conditions: Streptococcus agalactiae
[4] = tested on: hospital-associated methicillin-resistant S. aureus (MRSA-HA); test: In vitro MIC against isolates of MRSA-HA; type: cell-based, Staphylococcus aureus; conditions: Staphylococcus aureus; MRSA-HA (33 isolates)
Helicobacter pylori [5] = test: In vitro MIC against multiple isolates of H. pylori; type: cell-based
Helicobacter pylori [6] = conditions: H. pylori reference strain 3718, ATCC 43504; Clinical and Laboratory Standards Institute quality control range; cited from earlier work
Prevotella spp. = test: In vitro MIC testing against anaerobic bacteria; type: cell-based
Bifidobacterium bifidum = test: In vitro MIC testing against anaerobic bacteria; type: cell-based; conditions: ATCC15696; Bifidobacterium bifidum 3965, ATCC 15696
Lactobacillus plantarum = test: In vitro MIC testing against anaerobic bacteria; type: cell-based; conditions: Lactiplantibacillus plantarum, ATCC39268; Lactobacillus plantarum 2791, ATCC 39268
E. cloacae = test: In vitro MIC testing, antibacterial spectrum of activity; type: cell-based; conditions: Enterobacter cloacae; E. cloacae (30 isolates)
Veillonella parvula = test: In vitro MIC testing against anaerobic bacteria; type: cell-based; conditions: ATCC17745; Veillonella parvula 1272, ATCC 17745
Bifidobacterium longum = test: In vitro MIC testing against anaerobic bacteria; type: cell-based; conditions: ATCC15707; Bifidobacterium longum 3968, ATCC 15707
Lactobacillus casei = test: In vitro MIC testing against anaerobic bacteria; type: cell-based; conditions: Lacticaseibacillus casei, ATCC393; Lactobacillus casei 1722, ATCC 393
E. coli = test: In vitro MIC testing, antibacterial spectrum of activity; type: cell-based; conditions: Escherichia coli; E. coli (33 isolates); read-out: MIC90
[7] = tested on: Lactobacillus acidophilus; test: In vitro MIC testing against anaerobic bacteria; type: cell-based; conditions: Lactobacillus acidophilus 0681
Bifidobacterium infantis = test: In vitro MIC testing against anaerobic bacteria; type: cell-based; conditions: ATCC15702; Bifidobacterium infantis 3966, ATCC 15702
K. pneumoniae = test: In vitro MIC testing, antibacterial spectrum of activity; type: cell-based
P. aeruginosa = test: as above; type: cell-based; conditions: Pseudomonas aeruginosa; P. aeruginosa (11 isolates)
Bifidobacterium brevi = test: In vitro MIC testing against anaerobic bacteria; type: cell-based; conditions: ATCC15698; Bifidobacterium brevi 3967, ATCC 15698
Clostridium perfringens = test: microbe, parasite or virus in culture; type: cell-based
[8] = tested on: Prevotella melaninogenica; test: In vitro MIC testing against anaerobic bacteria; type: cell-based; conditions: Prevotella melaninogenica 3443, read-out: MIC
[9] = tested on: Streptococcus intermedius; test: In vitro MIC testing against anaerobic bacteria; type: cell-based; conditions: ATCC27335; Streptococcus intermedius 1203, ATCC 27335
Bacteroides ovatus = test: In vitro MIC testing against anaerobic bacteria; type: cell-based; conditions: Bacteroides ovatus 3508, read-out: MIC
P. granulosum = test: In vitro MIC testing, antibacterial spectrum of activity; type: cell-based; conditions: P. granulosum [clinical isolates] (3 isolates)
Salmonella Spp. = test: as above; type: cell-based; conditions: Salmonella
[10] = S. epidermidis [MRSE] (32 isolates)
[11] = S. epidermidis [MSSE] (31 isolates)
[12] = Klebsiella pneumoniae, K. pneumoniae (31 isolates)
[13] = P. acnes [clinical isolates] (55 isolates)

## CCC[C@@H]1C[C@@H](C(=O)N[C@@H]([C@H]2O[C@H](SC)[C@H](O)[C@@H](O)[C@H]2O)[C@H](C)Cl)N(C)C1 [Clindamycin]
S. epidermidis; [10]
  MIC50: > 32 µg/mL
  MIC90: > 32 µg/mL
S. epidermidis; [11]
  MIC50: 0.12 µg/mL (≈ 0.282 µM)
  MIC90: > 32 µg/mL
S. haemolyticus; read-out: MIC50
  MIC50: 0.12 µg/mL (≈ 0.282 µM)
S. haemolyticus
  MIC90: 1 µg/mL (≈ 2.35 µM)
P. avidum
  MIC Range: ≦0.06-0.5 μg/mL
[1]
  MIC50: 0.12 µg/mL (≈ 0.282 µM)
[1]; read-out: MIC90
  MIC90: > 32 µg/mL
S. aureus; MRSA
  MIC50: 0.25 µg/mL (≈ 0.588 µM)
  MIC90: > 32 µg/mL
S. aureus; MSSA
  MIC50: 0.25 µg/mL (≈ 0.588 µM)
  MIC90: > 32 µg/mL
S. pneumoniae; read-out: MIC50
  MIC50: 0.03 µg/mL (≈ 0.0706 µM)
S. pneumoniae; read-out: MIC90
  MIC90: 0.06 µg/mL (≈ 0.141 µM)
S. pyogenes
  MIC50: 0.03 µg/mL (≈ 0.0706 µM)
  MIC90: 0.06 µg/mL (≈ 0.141 µM)
[2]; read-out: MIC50
  MIC50: 0.06 µg/mL (≈ 0.141 µM)
[2]; read-out: MIC90
  MIC90: 0.12 µg/mL (≈ 0.282 µM)
P. acnes; read-out: MIC50
  MIC50: ≤ 0.06 µg/mL
P. acnes; read-out: MIC90
  MIC90: 4 µg/mL (≈ 9.41 µM)
[3]
  MIC50: 0.12 µg/mL (≈ 0.282 µM)
  MIC90: 0.25 µg/mL (≈ 0.588 µM)
E. faecium
  MIC50: > 32 µg/mL
  MIC90: > 32 µg/mL
E. faecium; VRE
  MIC50: > 32 µg/mL
  MIC90: > 32 µg/mL
E. faecalis
  MIC50: > 32 µg/mL
  MIC90: > 32 µg/mL
S. agalactiae
  MIC50: 0.06 µg/mL (≈ 0.141 µM)
  MIC90: > 16 µg/mL
[4]
  MIC50: 2 µg/mL (≈ 4.71 µM)
  MIC90: > 32 µg/mL

## CC1(C)S[C@@H]2[C@H](NC(=O)[C@H](N)c3ccc(O)cc3)C(=O)N2[C@H]1C(=O)O [AMX, amoxicillin]
Helicobacter pylori [5]; H. pylori clinical isolate summary
  MIC Range: 0.015 to 0.12 µg/mL
Helicobacter pylori [5]; H. pylori clinical isolate, culture No. 4368
  MIC: 0.06 µg/mL (≈ 0.164 µM)
Helicobacter pylori [5]; H. pylori clinical isolate, culture No. 4369
  MIC: 0.12 µg/mL (≈ 0.328 µM)
Helicobacter pylori [5]; H. pylori clinical isolate, culture No. 4370
  MIC: 0.12 µg/mL (≈ 0.328 µM)
Helicobacter pylori [5]; H. pylori clinical isolate, culture No. 4371
  MIC: 0.12 µg/mL (≈ 0.328 µM)
Helicobacter pylori [5]; H. pylori clinical isolate, culture No. 4372
  MIC: 0.015 µg/mL (≈ 0.041 µM)
Helicobacter pylori [5]; H. pylori clinical isolate, culture No. 4374
  MIC: 0.015 µg/mL (≈ 0.041 µM)
Helicobacter pylori [5]; H. pylori clinical isolate, culture No. 4375
  MIC: 0.12 µg/mL (≈ 0.328 µM)
Helicobacter pylori [5]; H. pylori clinical isolate, culture No. 4377
  MIC: 0.015 µg/mL (≈ 0.041 µM)
Helicobacter pylori [5]; H. pylori clinical isolate, culture No. 4503
  MIC: 0.03 µg/mL (≈ 0.0821 µM)
Helicobacter pylori [5]; H. pylori clinical isolate, culture No. 4504
  MIC: 0.015 µg/mL (≈ 0.041 µM)
Helicobacter pylori [5]; H. pylori reference strain, culture No. 3718, ATCC 43504
  MIC: 0.03 µg/mL (≈ 0.0821 µM)
Helicobacter pylori [5]; H. pylori reference strain, culture No. 3719, ATCC 700824
  MIC: 0.015 µg/mL (≈ 0.041 µM)
Helicobacter pylori [5]; H. pylori reference strain, culture No. 3720, ATCC BAA-945
  MIC: 0.06 µg/mL (≈ 0.164 µM)
Helicobacter pylori [5]; H. pylori, MIC for 50% of clinical test isolates
  MIC50: 0.03 µg/mL (≈ 0.0821 µM)
Helicobacter pylori [5]; H. pylori, MIC for 90% of clinical test isolates
  MIC90: 0.12 µg/mL (≈ 0.328 µM)
Helicobacter pylori [6]
  MIC, CLSI Quality Control Range: (0.015-0.12) μg/mL

## CN(C)[C@@H]1C(O)=C(C(N)=O)C(=O)[C@@]2(O)C(O)=C3C(=O)c4c(O)cccc4[C@@](C)(O)[C@H]3C[C@@H]12 [Tetracycline, tetracycline]
Prevotella spp.; Prevotella spp. 3564
  MIC: 1 µg/mL (≈ 2.25 µM)
Prevotella spp.; Prevotella spp. 3568
  MIC: 4 µg/mL (≈ 9 µM)
S. haemolyticus
  MIC90: > 32 µg/mL
Bifidobacterium bifidum
  MIC: 1 µg/mL (≈ 2.25 µM)
Lactobacillus plantarum
  MIC: 2 µg/mL (≈ 4.5 µM)
E. cloacae
  MIC90: > 64 µg/mL
Veillonella parvula
  MIC: 1 µg/mL (≈ 2.25 µM)
Bifidobacterium longum
  MIC: 2 µg/mL (≈ 4.5 µM)
Lactobacillus casei
  MIC: 2 µg/mL (≈ 4.5 µM)
E. coli
  MIC90: > 64 µg/mL
[7]
  MIC: 2 µg/mL (≈ 4.5 µM)
P. avidum
  MIC Range: 1 to 8 µg/mL
Bifidobacterium infantis
  MIC: 1 µg/mL (≈ 2.25 µM)
K. pneumoniae; K. pneumoniae [tetS] (7 isolates)
  MIC Range: 0.5 to 4 µg/mL
K. pneumoniae; [12]
  MIC50: 8 µg/mL (≈ 18 µM)
  MIC90: > 64 µg/mL
P. aeruginosa
  MIC50: 64 µg/mL (≈ 144 µM)
Bifidobacterium brevi
  MIC: 1 µg/mL (≈ 2.25 µM)
Clostridium perfringens
  MIC: > 16 µg/mL
Clostridium perfringens; Clostridium perfringens 3518
  MIC: > 16 µg/mL
[8]
  MIC: 8 µg/mL (≈ 18 µM)
P. acnes
  MIC50: 0.5 µg/mL (≈ 1.13 µM)
  MIC90: 4 µg/mL (≈ 9 µM)
P. acnes; [13]
  MIC50: 1 µg/mL (≈ 2.25 µM)
  MIC90: 2 µg/mL (≈ 4.5 µM)
[9]
  MIC: 2 µg/mL (≈ 4.5 µM)
Bacteroides ovatus
  MIC: 0.5 µg/mL (≈ 1.13 µM)
E. faecium
  MIC50: 1 µg/mL (≈ 2.25 µM)
  MIC90: > 64 µg/mL
E. faecium; VRE
  MIC50: 2 µg/mL (≈ 4.5 µM)
  MIC90: > 64 µg/mL
S. agalactiae
  MIC90: > 32 µg/mL
P. granulosum
  MIC Range: 1 to 2 µg/mL
Salmonella Spp.
  MIC50: 2 µg/mL (≈ 4.5 µM)
  MIC90: > 64 µg/mL
